Legend:
K562 cells = experiment: K562-based MTT cell viability assay; set-up: species or system human; conditions: Homo sapiens, 48 h, read-out: Activity (IC50, reduction of cell viability)
Procedure: Cell viability was assayed by measuring the mitochondrial reduction of the tetrazolium salt 3-(4,5-methyltiazol-2yl)-2,5diphenyl-tetrazolium bromide] (MTT) (Applichen; A2231,0010) (Mosmann T. J Immunol Methods. 1983 16; 65(1-2):55-63; Chuan Y-C et al 2010. Oncogene. 29 (10), 1531-1542. Cells were seeded in 96-well plates in medium supplemented with 10% FBS (Lonza Cat. No: 14-502F), 2 mM L-Glut (Lonza Cat. No: BE17-605E) and 100 U/ml PEST (Lonza Cat. No: DE17-605E) at a cell density of 5000-20000 cells/well. Cells were seeded at a density according to their exponential growth phase. Vehicle (0.05% DMSO) or drug were added to culture medium at the indicated concentrations (10 to 0.01 microM) during 48 h. Then, MTT (0.3 mg/ml) was added to cells following by incubation for 2-4 h at 37° C. in the dark. The medium was then discarded and the formazan precipitate was solubilized by addition of 20% SDS (Sigma; L-5750) in 0.02N HCl (Panreac; 131020.1611) for 12-16 h. The optical density was measured at 595 nm with the iMark Microplate Reader (BioRad, USA). Data was expressed as percent growth above the level in controls and the results in figures were plotted as means±SEM of each test point from 3 replicates.
Statistical analysis. The concentration of drug that provokes 50% reduction of cell viability (IC50) was determined by using non-linear regression analysis and data were fitted to a log concentration vs normalized response curve in GraphPad software v5 (San Diego, Calif.).

STAT5 = experiment: Epo induced STAT5 phosphorylation in HEL cells (Western immunoblotting); assay type: cell-based, human; conditions: serum deprived HEL cells; 5 μM for 0.5-3 h or 0.5-10 μM for 3 h; Epo 10 units/ml 5 min
Procedure: FIG. 1. • A) Overnight serum deprived HEL cells were stimulated with Epo (10 units/ml) for 5, 10, 20, 30, 45 and 60 min. JAK2, pYJAK2, STAT5 and pYSTAT5 were detected using Western immunoblotting as described in methods. B) Overnight serum deprived HEL cells were pre-incubated with compound 4 (C4) (5 μM) for 0.5, 1, 2, and 3 h, and subsequently stimulated with 10 units/ml Epo for 5 min. JAK2, pYJAK2, STAT5 and pYSTAT5 were detected using Western immunoblotting as described in methods. C) Overnight serum deprived HEL cells were pre-incubated with C4 at increasing concentrations (0.5-10 μM) for 3 h, and subsequently stimulated with 10 units/ml Epo for 5 min. JAK2, pJAK2, STAT5 and pSTAT5 were detected using Western immunoblotting as described in methods. […]
For total protein extraction, cells were scraped with RIPA 1× lysis buffer (25 mM Tris-HCl pH 7.6, 150 mM NaCl, 1% NP-40, 1% sodium deoxycholate, 0.1% SDS, no. 89900, Thermo Scientific, Rockford, Ill., USA) supplemented with 1× protease and 1× phosphatase inhibitor cocktails (100× Halt™ Protease Inhibitor Cocktail, no. 87786 and 100× Halt™ Phosphatase Inhibitor Cocktail, no. 78420, both from Thermo Scientific, Rockford, Ill., USA). An aliquot of each extract was preserved for protein quantification by bicinchoninic acid assay (Pierce® BCA Protein Assay Kit, no. 23225, Thermo Scientific, Rockford, Ill., USA). […]

HEL cells = experiment: Induction of apoptosis in HEL cells (annexin-V-FITC/propidium iodide flow cytometry); assay type: cell-based, human; conditions: 24 or 48 hours
Procedure: FIG. 3. • Analysis of phosphatidylserine externalization in human erythroleukemia cells (HEL) treated with compound 4 or the reported JAK-STAT inhibitor WP 1066. A) At different concentrations for 24 hours. B) Representation of the data obtained after treatment of cells with 5 μM of compound 4 for 48 hours compared to vehicle. (C) Data obtained after treatment of the cells with a concentration of 5 μM of compound 4 for 24 or 48 hours. Data are representative of three experiments. * Signifies a P<0.01 difference from control. ^0 Signifies a P<0.001 difference from control.
Human erythroleukemia (HEL) cells, at a density of 1.5×10^5 cells/ml, were treated with compound 4 at the indicated concentrations for 24 or 48 hours. The cells were incubated with propidium iodide and annexin-V-FITC and the quantity of phosphatidylserine externalized was determined using flow cytometry.

N#Cc1ccc(C2C3=C(CCCC3=O)OC3=C2C(=O)c2ccccc2C3=O)cc1 (stereo not drawn) [Compound 4, 4-(1,6,11-trioxo-2,3,4,6,11,12-hexahydro-1H-benzo[b]xanthen-12-yl)benzonitrile]
IC50 (K562 cells): < 1 µM | Epo-induced phosphorylation of STAT5 (STAT5): inhibits, in a time/dose dependent manner | apoptosis of HEL cells (phosphatidylserine externalization) (HEL cells): induced, in a dose and time dependent manner, apoptosis

— patent US20150175585A1, “FUSED QUINONIC COMPOUNDS” (CENTRO ATLANTICO DEL MEDICAMENTO S.A (CEAMED, S.A.), priority 2012, published 2015)
